# From US20100184603A1, “Alcohol alkoxylates, compositions containing these, and use of the alcohol alkoxylates as adjuvants for the agrochemical field” (BASF SE, priority 2007, published 2010)
# Test system: leaf rust of wheat "Puccinia recondita"
# Experiment: Biotest: curative control of leaf rust of wheat
# Format: in vivo
# Conditions: wheat seedlings "Kanzler", curative spray 2 days after inoculation; 50 ppm epoxiconazole without adjuvant; disease percent of total leaf area after 10 days
# Method: 125 g/l epoxiconazole were ground together with in each case 20 g/l dispersant (Atlas G 5000^1, Synperonic A^1) and 50 g/l propylene glycol in aqueous medium in a stirred-ball mill (dyno-mill) until a particle size of 80%<2 μm was reached. To the mixture were added 3 g/l per liter antifoam, for example Rhodorsil 426^2, 3 g/l thickener, for example Rhodopol 23^2, and a biocide, for example Acticide MBS^3. The respective adjuvant, in aqueous solution or in a solvent, for example Solvesso, was stirred into this mixture, so that the final concentration of the formulation is composed of 62.5 g/l epoxiconazole and 125 g/l adjuvant. ^1Uniquema/Croda^2Rhodia^3Thor Chemie
# Biotest (Curative Control of Leaf Rust of Wheat):
# Leaves of wheat seedlings of the species “Kanzler” which had been grown in pots were dusted, in the two-leaf stage, with spores of leaf rust of wheat “Puccinia recondita” and incubated for 2 days in the greenhouse at high atmospheric humidity. In fully automated spray cabins, the plants were then sprayed with the formulations which comprised the active ingredients and adjuvants specified hereinbelow. The spray mixtures comprised 50 ppm epoxiconazole and 100 ppm adjuvant. […] After 10 days, the extent of the leaf rust disease was determined visually as disease percent of the total leaf area. 3 pots were evaluated for each combination.
smiles,measurement,value
Fc1ccc([C@]2(Cn3cncn3)O[C@H]2c2ccccc2Cl)cc1 (racemic) [Epoxiconazole],% infection,40%
